According to ChEMBL document CHEMBL1909046, “DrugMatrix in vitro pharmacology data”:

Legend:
Cytochrome P450 2A6 = molecular target: T1, Cytochrome P450 2A6 (Homo sapiens, UniProt P11509); settings: bti-tn-5b1-4
T1 sequence (P11509 whole entry): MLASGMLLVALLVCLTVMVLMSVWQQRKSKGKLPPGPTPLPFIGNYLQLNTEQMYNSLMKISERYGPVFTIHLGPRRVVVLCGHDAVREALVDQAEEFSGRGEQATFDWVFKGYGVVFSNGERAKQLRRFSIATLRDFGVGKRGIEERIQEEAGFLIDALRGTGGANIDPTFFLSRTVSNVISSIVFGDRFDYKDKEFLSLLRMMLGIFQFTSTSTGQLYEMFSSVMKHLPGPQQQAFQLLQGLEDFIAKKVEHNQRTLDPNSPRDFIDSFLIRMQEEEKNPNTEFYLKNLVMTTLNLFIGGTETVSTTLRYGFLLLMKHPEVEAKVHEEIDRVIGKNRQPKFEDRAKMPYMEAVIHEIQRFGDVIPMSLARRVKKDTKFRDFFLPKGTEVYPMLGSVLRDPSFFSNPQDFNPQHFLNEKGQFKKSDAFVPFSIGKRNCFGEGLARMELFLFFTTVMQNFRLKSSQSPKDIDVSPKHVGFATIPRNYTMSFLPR

Cytochrome P450 2C9 = Cytochrome P450 2C9 (Homo sapiens, UniProt P11712); settings: bti-tn-5b1-4
Sequence of Cytochrome P450 2C9 (P11712 whole entry): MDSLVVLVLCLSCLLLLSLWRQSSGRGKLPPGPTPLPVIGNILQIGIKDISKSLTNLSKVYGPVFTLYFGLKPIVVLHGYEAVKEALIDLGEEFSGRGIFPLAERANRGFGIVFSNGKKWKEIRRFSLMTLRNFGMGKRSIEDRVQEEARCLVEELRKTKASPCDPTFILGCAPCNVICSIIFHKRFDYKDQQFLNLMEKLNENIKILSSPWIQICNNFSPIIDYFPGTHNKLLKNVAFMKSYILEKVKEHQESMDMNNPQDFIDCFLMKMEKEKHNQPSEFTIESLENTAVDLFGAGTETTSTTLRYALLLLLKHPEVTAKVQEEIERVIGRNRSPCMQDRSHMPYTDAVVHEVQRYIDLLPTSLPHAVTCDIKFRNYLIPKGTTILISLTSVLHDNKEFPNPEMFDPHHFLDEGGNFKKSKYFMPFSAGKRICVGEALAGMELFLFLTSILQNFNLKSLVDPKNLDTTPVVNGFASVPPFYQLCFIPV

Cytochrome P450 1A2 = molecular target: T2, Cytochrome P450 1A2 (Homo sapiens, UniProt P05177); settings: bti-tn-5b1-4
T2 sequence (P05177 whole entry): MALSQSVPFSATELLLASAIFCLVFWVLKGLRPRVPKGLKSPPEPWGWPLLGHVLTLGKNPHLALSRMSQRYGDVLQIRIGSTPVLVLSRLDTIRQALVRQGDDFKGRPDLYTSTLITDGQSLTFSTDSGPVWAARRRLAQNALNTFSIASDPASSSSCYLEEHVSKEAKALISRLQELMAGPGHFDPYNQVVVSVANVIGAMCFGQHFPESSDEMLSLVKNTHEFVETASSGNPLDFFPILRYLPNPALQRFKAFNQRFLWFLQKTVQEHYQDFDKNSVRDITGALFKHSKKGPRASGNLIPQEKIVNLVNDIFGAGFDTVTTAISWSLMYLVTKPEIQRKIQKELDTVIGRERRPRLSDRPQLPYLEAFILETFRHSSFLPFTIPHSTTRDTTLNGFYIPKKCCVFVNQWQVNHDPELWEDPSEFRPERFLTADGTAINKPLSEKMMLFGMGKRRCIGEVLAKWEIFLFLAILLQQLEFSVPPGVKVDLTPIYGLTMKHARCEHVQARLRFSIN

Cytochrome P450 2E1 = Cytochrome P450 2E1 (Homo sapiens, UniProt P05181); settings: bti-tn-5b1-4
Sequence of Cytochrome P450 2E1 (P05181 whole entry): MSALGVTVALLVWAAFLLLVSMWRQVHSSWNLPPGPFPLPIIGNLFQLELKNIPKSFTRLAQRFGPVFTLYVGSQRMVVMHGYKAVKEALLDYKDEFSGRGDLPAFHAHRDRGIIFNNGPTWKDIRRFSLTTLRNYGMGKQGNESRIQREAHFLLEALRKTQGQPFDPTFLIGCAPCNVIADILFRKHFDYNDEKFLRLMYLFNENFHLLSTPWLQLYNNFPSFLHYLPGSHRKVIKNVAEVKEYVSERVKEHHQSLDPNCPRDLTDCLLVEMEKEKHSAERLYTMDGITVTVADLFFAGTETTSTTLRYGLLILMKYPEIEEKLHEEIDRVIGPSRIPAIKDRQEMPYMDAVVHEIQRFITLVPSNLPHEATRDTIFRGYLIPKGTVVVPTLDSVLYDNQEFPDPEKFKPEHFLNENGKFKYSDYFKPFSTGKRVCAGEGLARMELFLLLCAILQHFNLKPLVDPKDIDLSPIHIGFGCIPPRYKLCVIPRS

[1] = molecular target: Voltage-gated inwardly rectifying potassium channel KCNH2 (Homo sapiens, UniProt Q12809); settings: hek293
Sequence of Voltage-gated inwardly rectifying potassium channel KCNH2 (Q12809 whole entry): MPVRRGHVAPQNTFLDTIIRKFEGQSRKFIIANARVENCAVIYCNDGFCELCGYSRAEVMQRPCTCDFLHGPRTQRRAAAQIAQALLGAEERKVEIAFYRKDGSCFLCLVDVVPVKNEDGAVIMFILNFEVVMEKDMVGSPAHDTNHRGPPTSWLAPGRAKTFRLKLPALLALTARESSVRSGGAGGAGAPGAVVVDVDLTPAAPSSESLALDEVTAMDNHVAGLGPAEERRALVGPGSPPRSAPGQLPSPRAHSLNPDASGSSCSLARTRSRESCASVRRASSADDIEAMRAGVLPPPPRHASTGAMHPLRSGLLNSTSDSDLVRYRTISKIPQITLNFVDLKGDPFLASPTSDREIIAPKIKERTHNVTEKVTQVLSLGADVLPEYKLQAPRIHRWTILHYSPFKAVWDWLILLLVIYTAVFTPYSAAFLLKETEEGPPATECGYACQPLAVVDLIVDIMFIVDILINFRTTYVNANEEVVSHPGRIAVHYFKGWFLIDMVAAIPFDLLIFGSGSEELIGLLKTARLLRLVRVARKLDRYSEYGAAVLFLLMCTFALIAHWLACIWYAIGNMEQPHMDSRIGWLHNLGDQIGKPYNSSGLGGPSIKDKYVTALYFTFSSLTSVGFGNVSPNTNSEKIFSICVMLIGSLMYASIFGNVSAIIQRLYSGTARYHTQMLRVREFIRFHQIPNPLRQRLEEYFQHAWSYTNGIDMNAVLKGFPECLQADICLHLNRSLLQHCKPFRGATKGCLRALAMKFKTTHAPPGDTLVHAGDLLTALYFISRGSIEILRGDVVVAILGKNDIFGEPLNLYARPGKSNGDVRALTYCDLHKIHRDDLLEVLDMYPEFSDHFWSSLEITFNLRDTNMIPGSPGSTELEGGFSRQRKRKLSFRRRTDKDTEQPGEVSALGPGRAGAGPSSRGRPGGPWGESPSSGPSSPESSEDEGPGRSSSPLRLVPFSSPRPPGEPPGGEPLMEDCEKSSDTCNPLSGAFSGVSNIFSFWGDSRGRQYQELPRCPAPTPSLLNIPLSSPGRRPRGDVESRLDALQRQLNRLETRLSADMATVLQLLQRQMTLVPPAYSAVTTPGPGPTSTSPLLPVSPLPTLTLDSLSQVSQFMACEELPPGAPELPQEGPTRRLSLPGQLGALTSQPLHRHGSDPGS

Cytochrome P450 2C19 = Cytochrome P450 2C19 (Homo sapiens, UniProt P33261); settings: bti-tn-5b1-4
Sequence of Cytochrome P450 2C19 (P33261 whole entry): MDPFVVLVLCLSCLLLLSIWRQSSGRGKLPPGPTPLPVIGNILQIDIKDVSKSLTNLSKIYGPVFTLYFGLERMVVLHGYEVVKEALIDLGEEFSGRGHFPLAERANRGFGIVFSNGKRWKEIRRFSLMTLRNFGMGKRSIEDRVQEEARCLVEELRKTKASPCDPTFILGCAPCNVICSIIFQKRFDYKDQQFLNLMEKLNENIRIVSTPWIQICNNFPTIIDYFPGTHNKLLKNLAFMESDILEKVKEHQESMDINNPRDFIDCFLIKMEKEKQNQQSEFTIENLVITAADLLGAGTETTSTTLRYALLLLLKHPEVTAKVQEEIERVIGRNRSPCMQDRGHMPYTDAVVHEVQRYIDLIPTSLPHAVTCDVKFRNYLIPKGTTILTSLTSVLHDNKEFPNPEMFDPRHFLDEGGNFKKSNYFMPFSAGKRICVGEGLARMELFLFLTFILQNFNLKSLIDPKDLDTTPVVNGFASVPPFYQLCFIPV

Cytochrome P450 3A4 = Cytochrome P450 3A4 (Homo sapiens, UniProt P08684); settings: bti-tn-5b1-4
Sequence of Cytochrome P450 3A4 (P08684 whole entry): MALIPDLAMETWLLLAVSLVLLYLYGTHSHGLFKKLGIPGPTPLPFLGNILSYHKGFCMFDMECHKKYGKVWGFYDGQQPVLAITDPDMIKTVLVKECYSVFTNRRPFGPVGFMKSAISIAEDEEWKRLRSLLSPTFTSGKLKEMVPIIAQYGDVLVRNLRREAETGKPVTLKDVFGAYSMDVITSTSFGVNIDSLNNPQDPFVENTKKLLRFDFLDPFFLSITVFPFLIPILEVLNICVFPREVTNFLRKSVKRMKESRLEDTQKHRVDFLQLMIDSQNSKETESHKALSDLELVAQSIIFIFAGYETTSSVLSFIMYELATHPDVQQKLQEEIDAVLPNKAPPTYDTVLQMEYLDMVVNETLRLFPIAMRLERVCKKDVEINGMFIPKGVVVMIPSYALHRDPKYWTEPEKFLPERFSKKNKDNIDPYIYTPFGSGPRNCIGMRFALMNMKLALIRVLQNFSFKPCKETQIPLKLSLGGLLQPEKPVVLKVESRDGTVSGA

Cytochrome P450 2D6 = Cytochrome P450 2D6 (Homo sapiens, UniProt P10635); settings: bti-tn-5b1-4
Sequence of Cytochrome P450 2D6 (P10635 whole entry): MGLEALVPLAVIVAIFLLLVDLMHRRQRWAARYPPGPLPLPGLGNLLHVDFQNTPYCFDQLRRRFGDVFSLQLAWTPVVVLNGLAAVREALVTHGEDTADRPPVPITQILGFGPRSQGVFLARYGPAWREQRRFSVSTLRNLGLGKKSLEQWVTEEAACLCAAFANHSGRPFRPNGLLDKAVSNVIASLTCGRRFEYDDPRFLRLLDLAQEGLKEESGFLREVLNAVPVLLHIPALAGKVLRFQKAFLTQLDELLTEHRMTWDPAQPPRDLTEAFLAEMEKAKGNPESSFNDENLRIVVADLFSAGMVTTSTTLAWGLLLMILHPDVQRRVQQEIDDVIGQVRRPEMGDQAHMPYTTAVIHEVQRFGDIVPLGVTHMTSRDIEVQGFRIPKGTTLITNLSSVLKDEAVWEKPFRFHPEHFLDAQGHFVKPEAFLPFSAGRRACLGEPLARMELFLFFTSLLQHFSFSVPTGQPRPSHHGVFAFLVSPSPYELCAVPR
Note: in other assays of this panel Not Active means under 50% inhibition at 10 µM.

CC=Cc1ccc(O)c(OC)c1 [ISOEUGENOL]
Not Active: IC50 (Cytochrome P450 2A6) | Ki (Cytochrome P450 2A6) | IC50 (Cytochrome P450 2C9) | Ki (Cytochrome P450 2C9) | IC50 (Cytochrome P450 1A2) | Ki (Cytochrome P450 1A2) | IC50 (Cytochrome P450 2E1) | Ki (Cytochrome P450 2E1) | IC50 [1] | Ki [1] | IC50 (Cytochrome P450 2C19) | Ki (Cytochrome P450 2C19) | IC50 (Cytochrome P450 3A4) | Ki (Cytochrome P450 3A4) | IC50 (Cytochrome P450 2D6) | Ki (Cytochrome P450 2D6)
